# From patent US12516043B2, “Stiripentol derivative and use thereof” (National University Corporation Okayama University, priority 2020, dated 2026)
# What was measured:
# [1] = target: human LDH5 (tetramer of LDHA) (Homo sapiens, UniProt P00338); experiment: Lactate dehydrogenase inhibitory action, enzymatic reaction plus chromogenic reaction (LDH5); type: biochemical; conditions: FIG. 1A
# Protocol: (§1) Evaluation of Lactate Dehydrogenase Inhibitory Action (Compounds Nos. 1 to 10, FIGS. 1 to 5):
# (§2) Lactate dehydrogenase catalyzes production of lactic acid and NAD from pyruvic acid and NADH. […] In order to evaluate the enzymatic activity of lactate dehydrogenase, experiments were carried out using an evaluation system (Patent Literature 1, Non-Patent Literature 9) consisting of an enzymatic reaction (step 1) and a chromogenic reaction (step 2). In the enzymatic reaction of step 1, sodium pyruvate (100 μM), NADH (100 μM) and lactate dehydrogenase (human LDH1 or LDH5) were added, further an inhibitor (Compounds Nos. 1 to 10) different in concentration was added. The mixture was subjected to a reaction carried out in the presence of a 100 mM sodium phosphate buffer (pH 7.3, 37° C.) for 60 minutes (200 μL/well). In this stage, absorbance of the background at 492 nm was measured by a plate reader (absorbance before chromogenic reaction). […] INT changed into INT formazan by the action of diaphorase in the presence of NADH, and absorbance of INT formazan at 492 nm was measured by a plate reader (absorbance after chromogenic reaction). […] Then, the absorbance before chromogenic reaction was subtracted from the absorbance after chromogenic reaction. The value obtained by the above calculation was regarded as an “absorbance change value (ΔA)”. […]
# [2] = Solubility in lipid (choice of vehicle); type: physicochemical
# [3] = Pharmacokinetic evaluation by oral administration to a mouse (HPLC/MS of blood plasma); type: in vivo, ICR mice; conditions: 50 mg/kg oral, blood plasma thirty minutes later; for in vivo metabolic stability: HPLC (MS for No. 1)
# Protocol: Pharmacokinetic evaluation (compounds Nos. 1, 2, 4 and 9, FIGS. 6 to 10) by oral administration to a mouse:
# For pharmacokinetic study, 6-7 week-old ICR mice were used in experiments. […] A vehicle or each of the compounds (50 mg/kg) were respectively orally administered to a mouse by a disposable sonde. Thirty minutes later, each mouse was decapitated for sampling their blood. Heparin sodium (10 μg/mL) was added to the blood as an anticoagulant. After each blood sample was centrifuged for 15 minutes (1,000 g, 4° C.), the supernatant was obtained as a blood plasma. Subsequently, to extract a compound, ethyl acetate was added to the obtained blood plasma, air-dried with nitrogen gas, and dissolved again with acetonitrile. The sample pretreated in this manner was subjected to the following analysis (HPLC, MS). In performing the HPLC analysis, constituents of the blood plasma were separated by the HPLC system (manufactured by JASCO Corporation) using a C18 reverse-phase column, at a flow rate of 1.0 mL/min. For analysis of the compound No. 1, a mobile phase consisting of acetonitrile (80%) and water (20%) was used, whereas a mobile phase consisting of acetonitrile (70%) and water (30%) was used for analysis of Compounds No. 2, No. 4 and No. 9. Individual compounds were detected by a UV detector at 295 nm. The data were obtained/analyzed by a software, ChromNAV (manufactured by JASCO Corporation). To identify an unchanged compound within the blood plasma constituents, the compound itself was directly analyzed as a standard substance by HPLC and the retention times of these compounds were compared. In the MS analysis, LC-MS/MS system (Agilent 1200 HPLC-Chip and 6520 Accurate-Mass Q-TOF), manufactured by Agilent Technologies, was used. The pretreated sample was allowed to adsorb onto a C18 chip by use of a mobile phase consisting of acetonitrile (25%) and water (75%) containing formic acid (0.1%), and thereafter, the blood plasma constituents were separated by a mobile phase consisting of acetonitrile (60%) and water (40%) containing formic acid (0.1%). The MS spectrum of the blood plasma constituents separated was detected (obtained) by a mass spectrometer, and data was obtained/analyzed by a software, MassHunter Qualitative Analysis (Agilent Technologies).
# [4] = target: human LDH1 (tetramer of LDHB) (Homo sapiens, UniProt P07195); experiment: Lactate dehydrogenase inhibitory action, enzymatic reaction plus chromogenic reaction (LDH1); type: biochemical; conditions: FIG. 1B, each n=3
# Chain of human LDH1 (tetramer of LDHB) (P07195 whole entry): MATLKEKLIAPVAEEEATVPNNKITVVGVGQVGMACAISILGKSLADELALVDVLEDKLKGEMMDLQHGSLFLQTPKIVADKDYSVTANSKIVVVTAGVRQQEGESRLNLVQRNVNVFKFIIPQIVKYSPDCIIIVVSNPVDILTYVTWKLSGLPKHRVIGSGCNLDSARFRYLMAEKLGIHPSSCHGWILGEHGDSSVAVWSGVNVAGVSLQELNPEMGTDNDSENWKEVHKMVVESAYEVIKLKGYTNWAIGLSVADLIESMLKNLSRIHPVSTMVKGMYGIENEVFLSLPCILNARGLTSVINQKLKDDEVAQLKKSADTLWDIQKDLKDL
# Protocol: as §1, §2
# [5] = system: epileptic seizures in hippocampal sclerosis model mouse; experiment: Pharmacological effect evaluation using a hippocampal sclerosis model mouse; type: in vivo, ICR mice
# Protocol: Pharmacological Effect Evaluation by Using a Hippocampal Sclerosis Model Mouse (Compound No. 2, FIG. 11):
# Hippocampal sclerosis model mice for use in evaluating anti-epileptic action were prepared according to the literatures already published (Non-Patent Literatures 3 and 13). First, 6-7 week-old ICR mice were each anesthetized with a mixed solution of ketamine (100 mg/kg) and xylazine (40 mg/kg) and fixed to a stereotaxic apparatus. Subsequently, the scalp was removed and a U-shaped plastic frame required for recording electroencephalography in vivo was attached to the head. Then, a small amount of kainic acid (0.8 nmol, 40 nL) for inducing epilepsy was injected to the dorsal hippocampus (1.6 mm posterior to the bregma, 1.6 mm laterally from the center line, 1.4 mm (depth) from the brain surface) via a micro glass electrode and a metal electrode (diameter 200 μm) for measuring epileptic seizures was embedded in the proximity of the injection site of kainic acid. A reference electrode was installed in the cerebellum. Three weeks after the surgery, epileptic seizures spontaneously generated from the hippocampus were measured to evaluate anti-epilepsy action. Each mouse head was immobilized via a U-shaped frame, brain waves of the hippocampus was recorded through an analog filter of 0.5-30 Hz and digitized by an AD converter at a sampling rate of 1 kHz. After baseline brain wave was measured for one hour, a vehicle or Compound No. 2 was orally administered to each mouse by a disposable sonde, and their brain waves were recorded for further 3 hours. Epileptic seizures were analyzed by Igor Pro (WaveMetrics) and epileptic seizures lasting for 8 seconds or more were counted. Statistical analysis was carried out by SigmaPlot (Systat Software).
# [6] = system: lactate dehydrogenase; conditions: Non-Patent Literature 3; cited from earlier work
Compound,concentration at which inhibitory activity against LDHA was exerted ([1]; n=3) [µM],solubility in lipid [2],unchanged compound in the blood after oral administration [3],in vivo metabolic stability [3],inhibitory activity against LDHB (in words) [4],"epileptic seizure in the hippocampus ([5]; 150 mg/kg oral, 2.5 hours after administration, FIG. 11B)","number of seizures, dose dependency versus vehicle ([5]; dose of 50 mg/kg oral, 2-3 hours after administration, FIG. 11D, n=11)","number of spontaneous epileptic seizures per hour versus baseline ([5]; oral, one hour after the administration, FIG. 11C, n=10)","inhibitory activity against LDHA (in words) ([1]; n=3, compared with compound No. 1 (5 μM))",inhibitory action against lactate dehydrogenase [6]
"O=C(/C=C/c1ccc2c(c1)OCO2)c1ccc(-c2ccccc2)cc1 [Compound No. 1, reference compound]",5,highly soluble in lipid,quickly disappears,low,almost the same strong inhibitory activity,–,–,–,–,–
OC(/C=C/c1ccc2c(c1)OCO2)c1ccc(-c2ccccc2)cc1 (centres unmarked) [Compound No. 2],–,highly soluble in lipid,maintained,high,almost the same strong inhibitory activity,suppressed,significantly decreases,significant decrease,exert an inhibitory activity at the same concentration,–
OC(/C=C/c1ccc2c(c1)OCO2)c1ccc(-c2ccc(F)cc2)cc1 (centres unmarked) [Compound No. 4],–,highly soluble in lipid,maintained,high,–,–,–,–,–,–
OC(/C=C/c1ccc2c(c1)OCO2)c1ccc(-c2ccccc2)cc1F (centres unmarked) [Compound No. 9],–,highly soluble in lipid,maintained,high,–,–,–,–,–,–
CC(C)(C)C(O)/C=C/c1ccc2c(c1)OCO2 (centres unmarked) [stiripentol],–,–,–,–,–,–,–,–,–,weak
